Data as given in PubChem BioAssay (NCI).
Values joined by “and” are separate entries in the source; they are usually repeats but may differ in a detail not shown here. Equal values may be shown once.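 Values below derive from 48-hour exposures of cells grown in 96-well plates, with endpoints linearly interpolated between the two concentrations bracketing the appropriate inhibition level. GI50 is the concentration that inhibits growth by half. At the TGI there is no net growth.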

Assays:
Assay in all cases: DTP human tumour cell line panel, 48 h
786-0 renal = system: 786-0 renal
A549 NSCLC = system: A549 NSCLC
CCRF-CEM leukemia = system: CCRF-CEM leukemia
MOLT-4 leukemia = system: MOLT-4 leukemia
NCI-H460 lung = system: NCI-H460 lung
PC-3 prostate = system: PC-3 prostate
SF-295 CNS = system: SF-295 CNS
SK-MEL-5 melanoma = system: SK-MEL-5 melanoma
SK-OV-3 ovarian = system: SK-OV-3 ovarian
TK-10 renal = system: TK-10 renal

SMILES | GI50 (786-0 renal) [µM] | TGI (786-0 renal) [µM] | GI50 (A549 NSCLC) [µM] | TGI (A549 NSCLC) [µM] | GI50 (CCRF-CEM leukemia) [nM] | TGI (CCRF-CEM leukemia) [µM] | GI50 (MOLT-4 leukemia) [nM] | TGI (MOLT-4 leukemia) [µM] | GI50 (NCI-H460 lung) [µM] | TGI (NCI-H460 lung) [µM] | GI50 (PC-3 prostate) [µM] | TGI (PC-3 prostate) [µM] | GI50 (SF-295 CNS) [nM] | TGI (SF-295 CNS) [µM] | GI50 (SK-MEL-5 melanoma) [µM] | TGI (SK-MEL-5 melanoma) [µM] | GI50 (SK-OV-3 ovarian) | TGI (SK-OV-3 ovarian) [µM] | GI50 (TK-10 renal) | TGI (TK-10 renal) [µM]
COc1ccc(C(=O)c2cc3c(OC)c(OC)c(OC)cc3[nH]2)cc1 | 11.9 | > 100 | 5.77 | > 100 | 5270 | > 100 | 3510 | > 100 | 3.26 | > 100 | > 100 | > 100 | 6720 | > 100 | 2.2 | 5.62 | > 100 µM | > 100 | 39.6 µM | > 100
S=C1Nc2ccc(Cl)cc2C2(c3ccccc3)N3CCN=C3NN12 (stereo not given) | 38.3 | > 100 | > 100 | > 100 | 26900 | 70.7 | 22800 | 61.6 | 23.7 | 74.7 | 39.3 | > 100 | 28600 | > 100 | 28.1 | 45.4 | > 100 µM | > 100 | 35.1 µM | > 100
CCN1c2ccccc2C(Cl)(c2ccc(N(C)C)cc2)c2ccccc21 | 10.7 | 22.7 | 4.34 | 24.5 | 2340 | 17 | 3270 | 15.2 | 7.77 | 23.4 | 2.18 | 9.88 | 21700 | 73.8 | 3.76 | 15 | 4.97 µM | 18.2 | 11.1 µM | 29.1
C=CC1CC12C(=O)C1OC2(C)C2C(=O)c3c(O)ccc(O)c3C(=O)C12 (stereo not given) | 1.94 | 4.27 | 8.5 | 27.2 | 1300 | 16 | 617 | 17 | 7.09 | 23.7 | 4.72 | 15.3 | 1390 | 5.55 | 1.86 | 4.97 | 11.9 µM | 41.2 | 2.96 µM | 9.38
C/C(=N\N=C(/[Se])N1CC2CCC(CC2)C1)c1ccccn1 |  | 2.52 |  | 3.03 |  | 0.808 |  | 1.16 |  | 2.61 |  | 1.26 |  | 2.24 |  | 0.433 |  | 2.09 |  | 3.7
CC(=O)O/N=C1/C(c2c(O)[nH]c3cc(Br)ccc23)=Nc2ccccc21 | 1.92 | 8.06 | 1.48 | 3.47 | 1380 | 5.37 | 1780 | 5.07 | 1.24 | 3.33 | 1.33 | 3.51 | 2000 | 5.47 | 0.524 | 1.33 | 0.421 µM | 1.96 | 2.09 µM | 5.32
O=C(c1ccco1)c1c(C(F)(F)F)n([O-])c2ccccc2[n+]1=O | 0.42 | 1.83 | 3.18 | 27.7 | 671 | 3.71 | 102 | 0.564 | 0.245 | 1.15 | 0.338 | 3.61 | 1320 | 7.69 | 0.999 | 3.68 | 6.69 µM | 21 | 1.49 µM | 6.7
COc1cc(/C=C2\CCC(CN(C)C)C2=O)ccc1OC(=O)c1ccccc1 (stereo not given) |  | 12.4 |  | 51.5 |  | 9.77 |  | 7.03 |  | 37.7 |  | 30 |  | 32 |  | 29.3 |  | 52.4 |  | 23.5
O=c1[nH]cnc2[nH]ncc12 | 400 | > 5000 | 1940 | > 5000 | 360000 | > 5000 | 972000 | > 5000 | 1510 | > 5000 | 253 | > 5000 | 349000 | > 5000 | 1200 | > 5000 | > 85.9 µM and 111 µM | > 4080 | > 94.6 µM and 258 µM | > 5000
COc1ccc2c(c1)C(c1ccccc1Cl)=Nc1c(n[nH]c1C)N2 | > 18.6 | > 25 | 12.5 | > 25 | > 25000 | > 25 | > 25000 | > 25 | 18.5 | > 25 | > 22.7 | > 25 | > 25000 | > 25 | > 25 | > 25 | > 25 µM | > 25 | > 25 µM | > 25
CSc1ccc2c3c(n(C[C@H](O)CO)c(=O)c2c1)-c1ccccc1C3=O | 2.52 | 9.22 | 1.04 | 3.47 | 1020 | 7.1 | 368 | 2.33 | 0.476 | 2.33 | 3.42 | > 100 | 2820 | 12 | 1.75 | 3.76 | 6.06 µM | 34.2 | 4.76 µM | 37.5
C=C(c1ccc(C(=O)N(C)c2ccccc2N)cc1)C(C)N1C(=O)[C@H]2CCCN2C(=O)c2ccccc21 (stereo not given in full) | 57.6 | > 100 | 68.8 | > 100 | 27400 | > 100 | 24800 | 97.9 | 32.1 | > 100 | 26.2 | > 100 | > 100000 | > 100 | 31.2 | > 100 | 6.72 µM | 84.2 | 45.5 µM | > 100
O=C(Cc1cccc(OC(F)(F)F)c1)Nc1ccc(CCCCc2nnc(NC(=O)Cc3ccccn3)s2)nn1 | 11.4 | 27.5 |  |  | 32100 | > 100 | 5490 | > 100 | 13.9 | 48.3 | 18.3 | > 100 | 11500 | 31.4 | 16.1 | > 100 | 11.6 µM | 25.1 | 11.7 µM | 24.5
C=C1C(=O)O[C@H]2[C@H]1CC/C(COC(=O)CSCC(=O)OC/C1=C/CC[C@@]3(C)O[C@H]3[C@H]3OC(=O)C(=C)[C@@H]3CC1)=C\CC[C@@]1(C)O[C@@H]21 | 1.5 | 3.22 | 5 | 18.2 | 268 | 1.25 | 514 | 2.81 | 2.16 | 4.91 | 2.21 | 6.92 | 10200 | 26.2 | 1.73 | 3.77 | 15.6 µM | 29.1 | 1.69 µM | 3.27
COC(=O)[C@]12CC[C@@H](C)[C@H](C)[C@@H]1C1=CC[C@@H]3[C@@]4(C)C=C(O)C(=O)[C@@]5(C)COC(=C54)C[C@@]3(C)[C@]1(C)CC2 | 13.9 | 29.7 | 8.36 | 26 | 3380 | 14.9 | 2210 | 6.52 | 12.4 | 28.9 | 4.77 | 18.5 | 13000 | 28.7 | 4.25 | 15.3 | 14.6 µM | 32.5 | 12.5 µM | 29.8
COc1ccc(/C=C/C(=O)Oc2cc(O)cc(O)c2)cc1 |  | > 100 |  | > 100 |  | 37.3 |  | 30.7 |  | > 100 |  | > 100 |  | 52.4 |  | > 100 |  | > 100 |  | > 100
Cc1ccc(-c2cc(C3=CC(=O)C=CC3=O)n(-c3ccc(S(N)(=O)=O)cc3)n2)cc1 | 26.6 | 58.8 | > 100 | > 100 | > 100000 | > 100 | 9060 | > 100 | 68.2 | > 100 | 36.5 | > 100 | > 100000 | > 100 | 83.1 | > 100 |  |  | 8.54 µM | 48.7
O=C(CCl)N1c2ccccc2Sc2ccc3ccccc3c21 | 1.44 | 3.03 | 1.98 | 4.75 | 220 | 0.533 | 478 |  | 1.89 | 3.82 | 1.47 | 3.06 | 1680 | 3.15 | 1.6 | 2.96 | 1.79 µM | 3.18 | 1.54 µM | 2.92
CC(C)NC(=O)OCc1c(COC(=O)NC(C)C)c(-c2ccc(Cl)cc2)n2c1CCC2 | 2.75 | 8.68 | 8.12 | 33.5 | 1040 | > 33.4 | 1420 | > 26.2 | 0.751 | 14.4 | 3.32 | 25.2 | 1580 | 10.6 | 5.21 | 18.3 | 2.92 µM | 12.5 | 1.98 µM | 7.97
O=C(N/N=C/c1ccccc1O)C(=O)Nc1ccc(F)cc1 | 6.96 | > 100 | 3.67 | > 100 | 1350 | 13.4 | 2870 | > 100 | 2.74 | > 100 | 4.21 | > 100 | 1810 | 15.5 | 5.62 | > 100 | 10.3 µM | > 100 | 6.12 µM | > 100
O=C(Nc1ccc(Cl)cc1)c1cc(-c2ccc(Cl)cc2)c2sc(=O)[nH]c2n1 | 2.64 | 20.6 | 2.49 | 12.7 | 2500 | 40.3 | 2520 | 11.8 | 2.19 | 12.6 | 1.66 | 12.2 | 1560 | 4.37 | 0.687 | 2.99 | 2.08 µM | 7.47 |  | 
COc1ccccc1/C=N\N=C(N/N=C/c1ccccc1OC)N/N=C/c1ccccc1OC | 3.25 | 67.2 | 3.6 | > 100 | 3220 | > 100 | 3040 | 12.1 | 2.74 | 10.8 | 2.77 | > 100 | 2030 | 5.11 | 1.77 | 3.23 | 2.68 µM | 8.32 | 6.01 µM | > 100
COc1cccc2c1C(=O)c1c(O)c3c(c(O)c1C2=O)C[C@@](O)(C(=O)CO)C[C@@H]3OC1C[C@H](N)[C@H](O)[C@H](C)O1 (stereo not given in full) | 0.0324 | 1.19 | 0.0355 | > 50 | 18.6 | 0.428 |  | 0.105 | 0.005 | > 50 | 0.112 | 1.22 | 37.1 | 0.372 | 0.0368 | 0.104 | 0.107 µM | 10.9 | 0.177 µM | 
O=C(O)c1cc2cc(OCc3ccccc3)c(OCc3ccccc3)cc2[nH]1 | 22.7 | 48.4 |  |  | 33600 | > 100 | 25000 | > 100 | 17.8 | 33.4 | 23 | 68.5 | 17600 | 40.1 | 20.1 | 47.3 | 29.5 µM | > 100 | 24 µM | 70.6
COc1cc(/C=C2\CN(C)C/C(=C\c3cc(CN4CCCCC4)c(O)c(OC)c3)C2=O)cc(CN2CCCCC2)c1O | 3.92 | 14.5 | 3.76 | 16.1 | 2770 | 7.52 | 2950 | 10.7 | 2.18 | 5.13 | 4.36 | 26.2 | 4520 | 17.1 | 13 | 26.1 | 7.71 µM | 37.2 |  | 
COc1ccc2nc3cc(Cl)ccc3c(NCCCNCCC(C)O)c2c1 (stereo not given) | 0.472 | 1.94 | 0.422 | 2.12 | 361 | 2.61 | 119 | 1.58 | 0.178 | 0.561 | 0.496 | 2.35 | 276 | 1.63 |  |  | 0.465 µM | 2.62 | 0.497 µM | 2.94
